The source of these data is the Deep4Chem optical property database.

The data set in a line: solvent given as SMILES.

The structures appear in SMILES notation.

Take `O=C1c2ccccc2C(=O)c2cc(-c3ccc(N(c4ccccc4)c4ccccc4)cc3)ccc21`: the absorption maximum amounted to 447 nm (in C1CCOC1); 442 nm (in CCCCCC); 446 nm (in CCOC(C)=O); 443 nm (in CCOCC); 454 nm (in Cc1ccccc1); 457 nm (in ClC(Cl)(Cl)Cl). Under “in ClCCl”, this compound displayed an absorption maximum of 459 nm.

For the setting “in C1CCOC1”, `CC(C)(C)c1ccc(-c2cc3cc4c(cc(-c5ccc(C(C)(C)C)cc5)p4-c4ccccc4)cc3p2-c2ccccc2)cc1` (centres undefined) returned an absorption maximum of 396 nm.

In turn, `COc1cc(C(=O)O)cc(OC)c1O` yielded an absorption maximum (in O) of 260 nm.

For the compound `Cc1cccc2c1nc1c(=O)n(C)c(=O)nc-1n2C`, under “in CC#N”, the absorption maximum turned out to be 440 nm.

`CC(C)[Si]1(C(C)C)c2ccccc2-c2ccc(N(C)C)cc21` had an absorption maximum (in C1CCCCC1) of 323 nm; an absorption maximum (in CC#N) of 321 nm; an absorption maximum (in CCO) of 319 nm; an absorption maximum (in CCOCC) of 318 nm; an absorption maximum (in CS(C)=O) of 324 nm; an absorption maximum (in ClCCl) of 323 nm. Under “in c1ccccc1”, this compound yielded an absorption maximum of 323 nm.

In turn, `F[B-]1(F)Oc2ccccc2-c2nc(-c3ccccc3)c3cc(Cl)ccc3[n+]21` returned an absorption maximum (in Cc1ccccc1) of 395 nm.

In the case of `CCC1=C(C)C2=Cc3c4ccccc4c4n3[B-](C)(Oc3ccccc3-4)[N+]2=C1C` (centres undefined), the absorption maximum (in CC#N) was 616 nm, the absorption maximum (in CCCCCC) is reported as 621 nm, the absorption maximum (in Cc1ccccc1) is on record as 625 nm and the absorption maximum (in ClCCl) was determined as 622 nm.

Compound `Cc1csc(C)c1C1=C(c2c(C)sc(-c3ccc(-c4nc(-c5ccccc5)c(-c5ccccc5)[nH]4)cc3)c2C)C(F)(F)C(F)(F)C1(F)F` gave an absorption maximum (in C1CCOC1) of 339 nm.

Take `CCCCn1c2ccccc2c2ccc3c4cc(-c5ccc(OC)cc5)ccc4n(CCCC)c3c21`: the absorption maximum (in ClC(Cl)Cl) was found to be 333 nm.

`C[Si](C)(C)C#Cc1ccc2c3cccc4cccc(c5cccc1c52)c43` had an absorption maximum (in C1CCCCC1) of 459 nm.

`C(=C\c1cccc2ccccc12)/c1ccc(-c2nnc(-c3ccc(-c4cc5ccccc5s4)cc3)o2)cc1`: the absorption maximum reads like this: (in CC#N) 349 nm; (in CC(C)=O) 350 nm; (in CCCCCCCC) 354 nm; (in CCCCCCCCCCO) 360 nm; (in CCCCCCCCO) 359 nm; (in CCCCCO) 356 nm. The absorption maximum turned out to be 342 nm (in CCCO), 357 nm (in CN(C)C=O), 351 nm (in CO) and 360 nm (in CS(C)=O).

For the compound `Oc1ccc2ccccc2c1/C=N/c1cc2nc3ccccc3nc2cc1/N=C/c1c(O)ccc2ccccc12`, the absorption maximum (in CC#N) is 420 nm.

Consider `CC(C)(C)c1ccc2c(c1)c1cc(C(C)(C)C)ccc1n2-c1ccc(N(c2ccc(-c3ccc(-c4ccc(-c5ccc(-c6ccc(-c7ccc(N(c8ccc(-n9c%10ccc(C(C)(C)C)cc%10c%10cc(C(C)(C)C)ccc%109)cc8)c8ccc(-n9c%10ccc(C(C)(C)C)cc%10c%10cc(C(C)(C)C)ccc%109)cc8)cc7)s6)s5)s4)s3)cc2)c2ccc(-n3c4ccc(C(C)(C)C)cc4c4cc(C(C)(C)C)ccc43)cc2)cc1`, for which the absorption maximum (in ClCCl) amounted to 450 nm.

For the compound `Cc1cc(-c2ccc(-n3c4ccccc4c4ccccc43)cc2)nc(-c2ccc(-c3ccccc3)cc2)n1`, the absorption maximum is reported as 341 nm (in C1CCOC1), 341 nm (in CN(C)C=O), 341 nm (in Cc1ccccc1) and 341 nm (in ClC(Cl)Cl).

As for `N#CC(C#N)=Cc1ccc(-c2ccc(-c3nc4ccccc4s3)c(O)c2)o1`, the absorption maximum came to 426 nm (in ClCCl) and 394 nm (in O).

Turning to `c1ccc(-n2c3ccccc3c3cc(-c4ccc5nc(-c6ccc(-n7c8ccccc8c8ccccc87)cc6)nn5c4)ccc32)cc1`, where the note is “in C1CCOC1”, the absorption maximum is reported as 340 nm.

`CCOC(=O)CCOc1ccccc1C(c1c(C)[nH]c2ccccc12)c1c(C)[nH]c2ccccc12` yielded an absorption maximum (in CO) of 291 nm and an absorption maximum (in O) of 290 nm.

In the case of `NCCCCCCCCCCCCN1C(=O)c2ccc3c4ccc5c6c(ccc(c7ccc(c2c37)C1=O)c64)C(=O)N(CCCCCCCCCCCCN)C5=O`, the absorption maximum (in CN(C)C=O) came to 523 nm.

With `CCCCCCCCN1C(=O)c2ccc3c4c(-c5ccc6c7ccccc7n(-c7ccccc7)c6c5)cc5c6c(ccc(c7c(-c8ccc9c%10ccccc%10n(-c%10ccccc%10)c9c8)cc(c2c37)C1=O)c64)C(=O)N(CCCCCCCC)C5=O`, where the note is “in ClC(Cl)Cl”, the absorption maximum turned out to be 577 nm.

Regarding `CNc1ccc(/C=C/C(=O)OC)cc1`, the absorption maximum (in O) stood at 347.28 nm.

For `COC(=O)c1ccc(C2=C3C(C)=CC(C)=[N+]3[B-](F)(F)n3c(/C=C/c4c[nH]cn4)cc(C)c32)cc1`, for the setting “in ClC(Cl)Cl”, the absorption maximum is reported as 572 nm.

As for `CCn1c2ccccc2c2cc(C#Cc3cc(C#Cc4ccc5c(c4)c4ccccc4n5CC)nc(SC)n3)ccc21`, the absorption maximum runs as follows: (in C1CCOC1) 396 nm; (in CCOC(C)=O) 392 nm; (in CN(C)C=O) 399 nm; (in Cc1ccccc1) 396 nm; (in ClCCl) 396 nm.

As to `CCCCCCCCC1(CCCCCCCC)c2cc(-c3ccc(C(F)(F)F)cc3)ccc2-c2ccc(N(c3ccc(-n4c5ccccc5c5ccccc54)cc3)c3ccc4c(c3)C(CCCCCCCC)(CCCCCCCC)c3cc(-c5ccc(C(F)(F)F)cc5)ccc3-4)cc21`, the absorption maximum runs as follows: (in C1CCOC1) 375 nm; (in C1COCCO1) 374 nm; (in CC#N) 370 nm; (in CC(C)=O) 371 nm; (in CCCCCC) 380 nm; (in CCCCOCCCC) 379 nm. The absorption maximum by setting is: (in CCN(CC)CC) 376 nm; (in CCOC(C)=O) 372 nm; (in CCOCC) 374 nm; (in CN(C)C=O) 373 nm; (in CS(C)=O) 371 nm; (in Cc1ccccc1) 379 nm. The absorption maximum (in ClC(Cl)Cl) is 382 nm, the absorption maximum (in ClCCl) is on record as 378 nm and the absorption maximum (in c1ccccc1) stood at 378 nm.

Consider `F[B-]12OC(c3ccccc3)=Nc3cccc([n+]31)N=C(c1ccccc1)O2`, for which the absorption maximum (in ClCCl) came to 394 nm.

`N#Cc1ccc(/C=C/C(F)(F)F)c(N)c1`: the absorption maximum (in C1CCOC1) amounted to 367 nm.

`COc1ccc(-c2csc(/C(C#N)=C/c3ccc(Cl)cc3Cl)n2)cc1` yielded an absorption maximum (in CC#N) of 377 nm.

Regarding `Cc1c2oc3c(C)c(N)cc(C(=O)NC4OC(=O)C(C(C)C)N(C)C(=O)CN(C)C(=O)C5CCCN5C(=O)C(C(C)C)NC4=O)c3nc-2c(C(=O)NC2OC(=O)C(C(C)C)N(C)C(=O)CN(C)C(=O)C3CCCN3C(=O)C(C(C)C)NC2=O)c(N)c1=O` (centres undefined), the absorption maximum (in C1CCOC1) worked out at 524.93 nm; the absorption maximum (in CC#N) is 516.03 nm; the absorption maximum (in CC(=O)O) is listed as 521 nm; the absorption maximum (in CC(C)=O) was determined as 522.69 nm; the absorption maximum (in CCCCO) was 532.67 nm; the absorption maximum (in CCCCOC(C)=O) worked out at 524.07 nm. Besides, the absorption maximum was found to be 533.23 nm (in CCCO); 534.89 nm (in CCN(CC)CC); 531.93 nm (in CCO); 522.62 nm (in CCOC(C)=O); 535.18 nm (in CN(C)C=O); 529.7 nm (in CO). The absorption maximum reads like this: (in CS(C)=O) 540.29 nm; (in Cc1ccccc1) 528.44 nm; (in ClC(Cl)Cl) 520.12 nm; (in ClCCCl) 517.19 nm; (in O) 514.17 nm; (in O=[N+]([O-])c1ccccc1) 534 nm. In addition, the absorption maximum is reported as 522.11 nm (in c1ccccc1) and 541.16 nm (in c1ccncc1).

Regarding `CN(C)c1ccc(C(=Cc2ccc(/C=C/c3ccc(C#N)cc3)cc2)c2ccc(N(C)C)cc2)cc1`, the absorption maximum (in C1CCOC1) is on record as 415 nm.

`O=[N+]([O-])c1ccc2c(c1)-c1c3c(c4c([n+]1[B-](F)(F)O2)CCc1ccccc1-4)CCc1ccccc1-3` gave an absorption maximum (in ClCCl) of 343 nm.

Consider `CCCCCCOc1ccc(-c2cnc(-c3nnc(-c4ccc(OCCCCCC)cc4)o3)o2)cc1`, for which the absorption maximum by setting is: (in C1CCCCC1) 316 nm; (in C1CCOC1) 319 nm; (in CC#N) 320 nm; (in CCO) 322 nm; (in CO) 320 nm; (in ClC(Cl)Cl) 325 nm.

Turning to `CCCCN(CCCC)c1ccc(C#Cc2cc(C#Cc3ccc(C#N)cc3)c(C#Cc3ccc(N(CCCC)CCCC)cc3)cc2C#Cc2ccc(C#N)cc2)cc1`, for the setting “in ClCCl”, the absorption maximum was determined as 454 nm.

Regarding `CCCCCCCCCCCCCCn1c(-c2cc(-c3nc4ccc(C)cc4n3CCCCCCCCCCCCCC)cc(-c3nc4ccc(C)cc4n3CCCCCCCCCCCCCC)c2)nc2ccc(C)cc21`, the absorption maximum (in ClCCl) came out at 306.5 nm.

As to `N#Cc1c(N2CCCCC2)cc(-c2ccc3ccccc3c2)c2c1Cc1ccccc1-2`, the absorption maximum (in C1CCOC1) was 362 nm.

On to `CC/[NH+]=c1\cc2oc3cc(NCCOC(=O)C(NC(=O)OC(C)(C)C)C(C)C)c4ccccc4c3nc-2cc1C` (centres undefined), for which the absorption maximum reads like this: (in CCO) 590 nm; (in O) 590 nm.

For `CN(C)c1ccc(-c2nc3ccccc3n2-c2ccccc2)cc1`, the absorption maximum (in CC#N) came out at 325 nm.

In the case of `Clc1ccc(/C=C/c2nc3ccccc3s2)cc1`, the absorption maximum stood at 340 nm (in C1CCCCC1) and 340 nm (in CO).

Regarding `c1ccc(N(c2ccccc2)c2ccc(-c3cnc(-c4ccncc4)s3)cc2)cc1`, the absorption maximum (in CO) came to 403 nm.

Consider `CC[N+]1(CC)CN2C(=N1)C(C(=O)O)=Cc1cc(F)ccc12`, for which the absorption maximum (in O) turned out to be 375 nm.

For the compound `C[Si](C)(C)c1ccc([Si](C)(C)C)c2ccccc12`, under “in C1CCCCC1”, the absorption maximum was found to be 300 nm.

As to `COC(=O)c1cc(=O)n(C)c2cc(-c3cccc(N(C)C)c3)sc12`, the absorption maximum was determined as 396 nm (in CC#N) and 396 nm (in ClCCl).
